Measured values published in patent US20140360727A1, “REMEDIATION OF ASPHALTENE-INDUCED PLUGGING OF AN OIL-BEARING FORMATION” (SHELL OIL COMPANY, priority 2013, published 2014).
Read-outs that look alike come from different tables or passages of the source.

What was measured:
Assay type in all cases: physicochemical
[1] = SARA analysis of bitumen samples extracted from oil sands by each solvent
Method: The bitumen samples extracted at 30° C. from each oil sands sample were evaluated by SARA analysis to determine the saturates, aromatics, resins, and asphaltenes composition of the bitumen samples extracted by each solvent.

[2] = Extraction of mined oil sands with solvents (cyclic contact and drain); settings: 10 C and 30 C; FIGS. 4 and 5 and Table 1
Method: Each oil sands sample was weighed and placed in a cellulose extraction thimble that was placed on a porous polyethylene support disk in a jacketed glass cylinder with a drip rate control valve. Each oil sands sample was then extracted with a selected solvent at a selected temperature (10° C. or 30° C.) in a cyclic contact and drain experiment, where the contact time ranged from 15 to 60 minutes. Fresh contacting solvent was applied and the cyclic extraction repeated until the fluid drained from the apparatus became pale brown in color.
The extracted fluids were stripped of solvent using a rotary evaporator and thereafter vacuum dried to remove residual solvent. […] The residual solids and extraction thimble were air dried, weighed, and then vacuum dried.

[3] = Time required to entirely dissolve naturally occurring tar mat material; settings: DMS versus A150, both experiments
Method: Two experiments were conducted on a naturally occurring tar mat material recovered from an oil-bearing formation to compare the rate of dissolution of the tar mat material using dimethyl sulfide and A150, a commercially available solvent comprised of a mixture of aromatic hydrocarbons that is commonly used to dissolve tar mats. A naturally occurring tar mat material recovered from an oil-bearing formation at a depth of 4690 meters and at a formation temperature of 50° C. was utilized as the tar mat material for the comparison.
(§1) In the first experiment, two samples of DMS solvent and two samples of A150 solvent were individually mixed with the tar mat material at ambient temperature and pressure, where the volume (ml) to weight (g) ratio of each solvent sample to the tar mat material was approximately 100:1. The length of time required to entirely dissolve the tar mat material was measured and recorded.
as §1, with “second” for “first”, “four” for “two”, “10:1.” for “100:1.”

| Compound | Aromatics, oil composition of extracted bitumen ([1]; bitumen extracted at 30 C) | Asphaltenes, oil composition of extracted bitumen ([1]; bitumen extracted at 30 C) | Resins, oil composition of extracted bitumen ([1]; bitumen extracted at 30 C) | Saturates, oil composition of extracted bitumen ([1]; bitumen extracted at 30 C) | Aromatics, oil composition of extracted bitumen [1] | Asphaltenes, oil composition of extracted bitumen [1] | Resins, oil composition of extracted bitumen [1] | Recovery of bitumen from oil sand material versus best known fluids [2] | Effectiveness for extraction of asphaltenes from oil sands (SARA) ([1]; bitumen extracted at 30 C) | Rate of tar mat dissolution relative to A150 [3] |
| --- | --- | --- | --- | --- | --- | --- | --- | --- | --- | --- |
| S=C=S [Carbon Disulfide, carbon disulfide] | 41.89 Normalized Weight Percent | 13.85 Normalized Weight Percent | 25.49 Normalized Weight Percent | 18.77 Normalized Weight Percent | – | – | – | – | – | – |
| ClC(Cl)Cl [Chloroform, chloroform] | – | – | – | 15.64 Normalized Weight Percent | 43.56 Normalized Weight Percent | 14.86 Normalized Weight Percent | 25.94 Normalized Weight Percent | – | – | – |
| CSC [Dimethyl Sulfide, dimethyl sulfide] | 47.07 Normalized Weight Percent | 13.19 Normalized Weight Percent | 24.25 Normalized Weight Percent | 15.49 Normalized Weight Percent | – | – | – | comparable | excellent miscibility properties | not less than 1.4 times |
| C1CCOC1 [Tetrahydrofuran, tetrahydrofuran] | 45.24 Normalized Weight Percent | 14.27 Normalized Weight Percent | 24.38 Normalized Weight Percent | 16.11 Normalized Weight Percent | – | – | – | – | – | – |
| Cc1ccccc1C [o-Xylene, o-xylene] | 46.39 Normalized Weight Percent | 13.96 Normalized Weight Percent | 22.28 Normalized Weight Percent | 17.37 Normalized Weight Percent | – | – | – | – | – | – |
